Source: patent US11123337B2, “4-methylsulfonyl-substituted piperidine urea compounds” (MYOKARDIA, INC., priority 2015, dated 2021)

Target: bovine cardiac myosin (Bos taurus, UniProt Q9BE39)
Assay: Myosin activation assay (PK/LDH-coupled ATPase, bovine cardiac myofibrils)
Format: biochemical
Conditions: AC20 = concentration at which total response is increased by twenty percent
Description: Small molecule agents were assessed for their ability to activate the enzymatic activity of bovine cardiac myosin using a biochemical assay that couples the release of ADP (adenosine diphosphate) from cardiac myosin to an enzymatic coupling system consisting of pyruvate kinase and lactate dehydrogenase (PK/LDH) and monitoring the absorbance decrease of NADH (at 340 nm) as a function of time. PK converts ADP to ATP (adenosine triphosphate) by converting PEP (phosphoenolpyruvate) to pyruvate. Pyruvate is then converted to lactate by LDH by converting NADH (nicotinamide adenine dinucleotide) to NAD (oxidized nicotinamide adenine dinucleotide). The source of cardiac myosin was from bovine heart in the form of skinned myofibrils. Prior to testing small molecule agents, the bovine myofibrils were assessed for their calcium responsiveness and the calcium concentration that achieves either a 50% (pCa50 or pCa=˜6) or <5% (pCa=10) activation of the myofibril system was chosen as the final condition for assessing the activation activity of the small molecule agents. All enzymatic activity was measured in a buffered solution containing 12 mM PIPES (piperazine-N,N′-bis(2-ethanesulfonic acid), 2 mM magnesium chloride at pH 6.8 (PM12 buffer). Final assay conditions were 1 mg/mL of bovine cardiac myofibrils, 0.4 mM PK/LDH, 50 uM ATP, 0.1 mg/mL BSA (bovine serum albumin), 10 ppm antifoam, 2 mM BME, 0.5 mM NADH, 1.5 mM PEP at the desired free calcium concentration required to achieve either 50% or <5% activation of the myofibrils.
A dilution series of compound was created in DMSO such that the final desired concentration of compound would be achieved in a volume of […] with a fixed DMSO concentration of 3.3% (v/v). Typically a 1 μL of the dilution series was added to a 384 well plate to achieve a 10 point dose response. Following the addition of 14 μL of a solution containing bovine cardiac myofibrils, PK/LDH and a solution of calcium (that achieved the desired activation), the enzymatic reaction was started with the addition of 15 μL of a solution containing ATP, PEP and NADH. The reaction progress was followed in a PerkinElmer Envision plate reader at ambient temperature using clear bottom plates. The plate reader was configured to read absorbance at 340 nm in kinetics mode for 15 minutes. Data were recorded as the slope of the absorbance response to time. The slopes of the absorbance response as a function of time were normalized to slopes on the plate containing DMSO. This normalized rate was then plotted as a function of small molecule concentration and the data was fitted to a four-parameter fit using EXCEL XLfit. The concentration at which the total response is increased by twenty or fifty percent is reported as AC20 or AC50.

bovine cardiac myosin, sequence (Q9BE39 whole entry): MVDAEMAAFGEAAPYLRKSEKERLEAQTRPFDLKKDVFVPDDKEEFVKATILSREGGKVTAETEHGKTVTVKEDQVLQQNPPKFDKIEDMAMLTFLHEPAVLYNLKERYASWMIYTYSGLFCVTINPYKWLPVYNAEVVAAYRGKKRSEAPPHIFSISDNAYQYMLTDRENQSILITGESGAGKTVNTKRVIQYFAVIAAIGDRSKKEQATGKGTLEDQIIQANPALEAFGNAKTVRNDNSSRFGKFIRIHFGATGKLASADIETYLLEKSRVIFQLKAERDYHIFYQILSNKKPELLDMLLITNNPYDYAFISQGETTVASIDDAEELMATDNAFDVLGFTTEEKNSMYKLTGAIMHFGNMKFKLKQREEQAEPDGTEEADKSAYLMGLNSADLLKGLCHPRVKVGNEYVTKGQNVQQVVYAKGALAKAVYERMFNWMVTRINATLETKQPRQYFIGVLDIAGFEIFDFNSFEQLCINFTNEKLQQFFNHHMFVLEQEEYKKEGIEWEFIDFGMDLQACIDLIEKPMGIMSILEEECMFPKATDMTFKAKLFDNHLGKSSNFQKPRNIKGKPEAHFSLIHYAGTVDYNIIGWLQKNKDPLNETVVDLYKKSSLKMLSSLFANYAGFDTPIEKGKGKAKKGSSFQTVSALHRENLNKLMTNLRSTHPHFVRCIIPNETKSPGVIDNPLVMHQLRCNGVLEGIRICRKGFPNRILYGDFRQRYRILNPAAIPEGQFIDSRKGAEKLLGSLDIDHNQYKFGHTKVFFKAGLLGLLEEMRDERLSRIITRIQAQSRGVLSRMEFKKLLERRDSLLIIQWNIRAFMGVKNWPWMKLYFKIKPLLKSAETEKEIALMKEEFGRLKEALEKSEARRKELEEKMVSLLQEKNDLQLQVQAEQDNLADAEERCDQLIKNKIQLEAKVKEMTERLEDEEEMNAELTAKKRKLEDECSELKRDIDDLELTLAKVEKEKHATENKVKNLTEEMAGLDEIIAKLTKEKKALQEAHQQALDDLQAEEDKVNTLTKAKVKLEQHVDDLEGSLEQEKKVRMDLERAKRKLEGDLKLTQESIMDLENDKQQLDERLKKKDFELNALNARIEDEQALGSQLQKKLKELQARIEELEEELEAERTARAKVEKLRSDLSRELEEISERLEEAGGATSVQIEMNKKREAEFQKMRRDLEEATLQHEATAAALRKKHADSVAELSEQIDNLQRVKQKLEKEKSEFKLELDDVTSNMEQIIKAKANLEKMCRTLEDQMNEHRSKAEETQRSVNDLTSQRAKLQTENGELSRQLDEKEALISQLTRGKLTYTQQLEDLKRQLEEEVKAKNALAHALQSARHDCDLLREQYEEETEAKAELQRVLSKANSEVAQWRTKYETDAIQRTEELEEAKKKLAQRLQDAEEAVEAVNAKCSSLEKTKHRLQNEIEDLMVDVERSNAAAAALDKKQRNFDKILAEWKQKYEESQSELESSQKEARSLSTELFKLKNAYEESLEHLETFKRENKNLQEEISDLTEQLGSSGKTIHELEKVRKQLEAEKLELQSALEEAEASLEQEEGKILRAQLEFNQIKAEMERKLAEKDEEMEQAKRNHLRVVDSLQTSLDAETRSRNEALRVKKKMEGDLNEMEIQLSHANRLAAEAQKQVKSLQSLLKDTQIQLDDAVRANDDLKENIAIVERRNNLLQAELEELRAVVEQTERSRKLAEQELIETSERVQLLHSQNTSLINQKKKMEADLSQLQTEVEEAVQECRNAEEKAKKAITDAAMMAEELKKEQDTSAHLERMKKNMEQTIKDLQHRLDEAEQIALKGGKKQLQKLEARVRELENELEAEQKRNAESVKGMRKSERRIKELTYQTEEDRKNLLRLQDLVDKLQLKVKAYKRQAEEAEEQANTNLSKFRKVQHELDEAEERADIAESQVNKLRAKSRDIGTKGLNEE
bovine cardiac myosin, sequence (P85100 whole entry partner): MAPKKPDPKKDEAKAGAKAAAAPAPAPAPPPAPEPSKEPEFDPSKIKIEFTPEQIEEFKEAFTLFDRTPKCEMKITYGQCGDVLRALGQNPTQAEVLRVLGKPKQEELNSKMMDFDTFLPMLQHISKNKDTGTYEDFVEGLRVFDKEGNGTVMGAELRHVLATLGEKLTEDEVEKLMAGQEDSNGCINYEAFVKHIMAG
bovine cardiac myosin, sequence (Q3SZE5 whole entry partner): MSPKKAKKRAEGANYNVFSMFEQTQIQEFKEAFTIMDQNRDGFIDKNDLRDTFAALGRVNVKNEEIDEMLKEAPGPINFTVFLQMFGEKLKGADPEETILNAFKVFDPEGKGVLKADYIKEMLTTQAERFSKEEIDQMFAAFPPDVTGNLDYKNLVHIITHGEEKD

Compound	Myosin Activation (AC20)
CC(C)n1cc(S(=O)(=O)CC2CCN(C(=O)Nc3ccncc3)CC2)cn1 [Compound 1, 4-(((1-Isopropyl-1H-pyrazol-4-yl)sulfonyl)methyl)-N-(pyridin-4-yl)piperidine-1-carboxamide]	+ (+ represents myosin activation value AC20 > 5 μM)
N#Cc1cc(C(F)(F)F)ccc1S(=O)(=O)C(F)(F)C1CCN(C(=O)Nc2ccnnc2)CC1 [Compound 3, 4-(((2-Cyano-4-(trifluoromethyl)phenyl)sulfonyl)difluoromethyl)-N-(pyridazin-4-yl)piperidine-1-carboxamide]	+++ (+++ represents myosin activation value AC20 < 2 μM)
O=C(Nc1ccnnc1)N1CCC(C(F)(F)S(=O)(=O)c2ccccc2C(F)F)CC1 [Compound 4, 4-(((2-(Difluoromethyl)phenyl)sulfonyl)difluoromethyl)-N-(pyridazin-4-yl)piperidine-1-carboxamide]	++ (++ represents myosin activation value AC20 from 2 μM-5 μM)
CC(F)(C1CCN(C(=O)Nc2ccon2)CC1)S(=O)(=O)c1ccc(C(F)(F)F)cc1 (stereo not drawn) [Compound 8, 4-(1-Fluoro-1-((4-(trifluoromethyl)phenyl)sulfonyl)ethyl)-N-(isoxazol-3-yl)piperidine-1-carboxamide]	+++ (+++ represents myosin activation value AC20 < 2 μM)
COc1ccc(S(=O)(=O)C(C)(F)C2CCN(C(=O)Nc3ccnnc3)CC2)cn1 (stereo not drawn) [Compound 9, 4-(1-fluoro-1-((6-methoxypyridin-3-yl)sulfonyl)ethyl)-N-(pyridazin-4-yl)piperidine-1-carboxamide]	+++ (+++ represents myosin activation value AC20 < 2 μM)
CC(F)(C1CCN(C(=O)Cc2ccnnc2)CC1)S(=O)(=O)c1cccc(F)c1 (stereo not drawn) [Compound 10, 1-(4-(1-Fluoro-1-((3-fluorophenyl)sulfonyl)ethyl)piperidin-1-yl)-2-(pyridazin-4-yl)ethan-1-one]	+ (+ represents myosin activation value AC20 > 5 μM)
CC(F)(C1CCN(C(=O)Nc2ccno2)CC1)S(=O)(=O)c1cccc(F)c1 (stereo not drawn) [Compound 11, 4-(1-Fluoro-1-((3-fluorophenyl)sulfonyl)ethyl)-N-(isoxazol-5-yl)piperidine-1-carboxamide]	++ (++ represents myosin activation value AC20 from 2 μM-5 μM)
Cc1cc(NC(=O)N2CCC(C(C)(F)S(=O)(=O)c3cccc(F)c3)CC2)cnn1 (stereo not drawn) [Compound 12, 4-(1-Fluoro-1-((3-fluorophenyl)sulfonyl)ethyl)-N-(6-methylpyridazin-4-yl)piperidine-1-carboxamide]	+ (+ represents myosin activation value AC20 > 5 μM)
CC(F)(C1CCN(C(=O)Nc2ccnnc2)CC1)S(=O)(=O)c1ccc(OC(F)F)nc1 (stereo not drawn) [Compound 14, 4-(1-((6-(Difluoromethoxy)pyridin-3-yl)sulfonyl)-1-fluoroethyl)-N-(pyridazin-4-yl)piperidine-1-carboxamide]	+++ (+++ represents myosin activation value AC20 < 2 μM)
Cn1cc(S(=O)(=O)C(C)(F)C2CCN(C(=O)Nc3ccon3)CC2)c(C(F)(F)F)n1 (stereo not drawn) [Compound 16, 4-(1-Fluoro-1-((1-methyl-3-(trifluoromethyl)-1H-pyrazol-4-yl)sulfonyl)ethyl)-N-(isoxazol-3-yl)piperidine-1-carboxamide]	++ (++ represents myosin activation value AC20 from 2 μM-5 μM)
Cn1nc(C(F)F)cc1S(=O)(=O)C(C)(F)C1CCN(C(=O)Nc2ccnnc2)CC1 (stereo not drawn) [Compound 17, 4-(1-((3-(difluoromethyl)-1-methyl-1H-pyrazol-5-yl)sulfonyl)-1-fluoroethyl)-N-(pyridazin-4-yl)piperidine-1-carboxamide]	+++ (+++ represents myosin activation value AC20 < 2 μM)
Cn1cc(S(=O)(=O)C(C)(F)C2CCN(C(=O)Nc3ccon3)CC2)c(Cl)n1 (stereo not drawn) [Compound 19, 4-(1-((3-Chloro-1-methyl-1H-pyrazol-4-yl)sulfonyl)-1-fluoroethyl)-N-(isoxazol-3-yl)piperidine-1-carboxamide]	+ (+ represents myosin activation value AC20 > 5 μM)
Cn1cc(S(=O)(=O)[C@](C)(F)C2CCN(C(=O)Nc3ccon3)CC2)c(C(F)F)n1 [Compound 21, (S)-4-(1-((3-(Difluoromethyl)-1-methyl-1H-pyrazol-4-yl)sulfonyl)-1-fluoroethyl)-N-(isoxazol-3-yl)piperidine-1-carboxamide]	+ (+ represents myosin activation value AC20 > 5 μM)
O=C(Nc1ccnnc1)N1CCC(C(F)(F)S(=O)(=O)c2cccn3ccnc23)CC1 [Compound 22, 4-(Difluoro(imidazo[1,2-a]pyridin-8-ylsulfonyl)methyl)-N-(pyridazin-4-yl)piperidine-1-carboxamide]	+ (+ represents myosin activation value AC20 > 5 μM)
Cc1cc(S(=O)(=O)C(F)(F)C2CCN(C(=O)Nc3ccnnc3)CC2)n(C)n1 [Compound 23, 4-(((1,3-Dimethyl-1H-pyrazol-5-yl)sulfonyl)difluoromethyl)-N-(pyridazin-4-yl)piperidine-1-carboxamide]	++ (++ represents myosin activation value AC20 from 2 μM-5 μM)
Cn1nc(C2CC2)cc1S(=O)(=O)C(F)(F)C1CCN(C(=O)Nc2ccnnc2)CC1 [Compound 24, 4-(((3-Cyclopropyl-1-methyl-1H-pyrazol-5-yl)sulfonyl)difluoromethyl)-N-(pyridazin-4-yl)piperidine-1-carboxamide]	++ (++ represents myosin activation value AC20 from 2 μM-5 μM)
O=C(Nc1ccnnc1)N1CCC(C(F)(F)S(=O)(=O)c2ccccc2CO)CC1 [Compound 25, 4-(Difluoro((2-(hydroxymethyl)phenyl)sulfonyl)methyl)-N-(pyridazin-4-yl)piperidine-1-carboxamide]	++ (++ represents myosin activation value AC20 from 2 μM-5 μM)
Cn1cc(S(=O)(=O)C(C)(C)C2CCN(C(=O)Nc3ccon3)CC2)c(Cl)n1 [Compound 27, 4-(2-((3-Chloro-1-methyl-1H-pyrazol-4-yl)sulfonyl)propan-2-yl)-N-(isoxazol-3-yl)piperidine-1-carboxamide]	+ (+ represents myosin activation value AC20 > 5 μM)
O=C(Nc1ccnnc1)N1CCC(C2(S(=O)(=O)c3cccc(F)c3)CC(F)(F)C2)CC1 [Compound 28, 4-(3,3-Difluoro-1-((3-fluorophenyl)sulfonyl)cyclobutyl)-N-(pyridazin-4-yl)piperidine-1-carboxamide]	++ (++ represents myosin activation value AC20 from 2 μM-5 μM)
C[C@H](O)c1cc(NC(=O)N2CCC([C@@](C)(F)S(=O)(=O)c3cn(C)nc3C(F)F)CC2)ccn1 [Compound 29, 4-((S)-1-((3-(Difluoromethyl)-1-methyl-1H-pyrazol-4-yl)sulfonyl)-1-fluoroethyl)-N-(2-((S)-1-hydroxyethyl)pyridin-4-yl)piperidine-1-carboxamide]	+ (+ represents myosin activation value AC20 > 5 μM)
CC(C)(C1(F)CCN(C(=O)Nc2ccnnc2)CC1)S(=O)(=O)c1cccc(F)c1 [Compound 30, 4-Fluoro-4-(2-((3-fluorophenyl)sulfonyl)propan-2-yl)-N-(pyridazin-4-yl)piperidine-1-carboxamide]	++ (++ represents myosin activation value AC20 from 2 μM-5 μM)
